Laboratory results: patent US20020049173A1, “Alteration of cellular behavior by antisense modulation of mRNA processing” (priority 1999, published 2002)
In the oligonucleotide strings, read from the 5' end, every base follows the letter of its sugar. An asterisk marks phosphorothioate; unmarked linkages are phosphodiester. Other units and linkages are bracketed, terminal groups are in braces. A string of capitals states the bases alone. e = 2'-O-(2-methoxyethyl) (MOE); [5mC] = 5-methylcytosine; d = 2'-deoxy (DNA)

Columns and labels:
[1] = system: Human IL-5 receptorα; assay: Human IL-5 receptorα protein expression on the cell surface (36 hr), TF-1 cells; assay type: cell-based; design: % INHIB, human IL-5 receptorα protein on the cell surface / % of CONTROL, human IL-5 receptorα protein on the cell surface: concentration or dose not given beside the values; settings: for % INHIB, human IL-5 receptorα protein on the cell surface / % of CONTROL, human IL-5 receptorα protein on the cell surface: 36 hr
Description: (§1) A series of oligonucleotides were designed to target various splice sites or (intron-exon boundaries) in the IL-5 receptor mRNA.
ISIS 16746, 16748, 16755 and 16758 inhibited human IL-5 receptorα protein by over 50% in this assay and are therefore preferred. ISIS 16758 and 16755 were chosen for further study.

[2] = system: Human IL-5 receptorα membrane form mRNA; assay: Human IL-5 receptorα membrane form mRNA expression (18 hr); assay type: cell-based; design: % INHIB'N, human IL-5 receptorα membrane form mRNA / % of CONTROL, human IL-5 receptorα membrane form mRNA: concentration or dose not given beside the values; settings: 18 hr
Description: mRNA transcripts encoding the membrane form of the human IL-5 receptorα contain exons 1-10 and 12-14. Exon 11 is spliced out. It is, therefore, possible to target sequences in exons 1-10 which are common to both soluble and membrane forms of the receptor, or to selectively target sequences only present in the membrane form (exons 12-14). Oligonucleotides were also designed to target various intron/exon boundaries downstream of exon 11, with the intention of preventing successful splicing out of exon 11 and thus redirecting splice products away from the membrane form and in favor of the soluble form of IL-5 receptorα.
as §1

[3] = system: murine IL-5 receptor α mRNA, soluble form; assay: Soluble IL-5 receptor α mRNA by Northern blot in BCL1 cells; assay type: cell-based, mouse; settings: BCL1 cells, 10 μM, Northern blot, compared to untreated control; 2′-MOE gapmers
Description: (§2) Murine BCL1 cells were chosen for screening antisense oligonucleotides targeted to murine IL-5 receptor α. These are B-cell leukemia cells derived from a spontaneously arising tumor of BALB/c origin, and proliferate in response to murine or human IL-5. This is a CD5+line which resembles a subset of human chronic lymphocytic leukemia tumors and secretes IgM upon lipopolysaccharide stimulation. Cells were obtained from the American Type Culture Collection and cultured in RPMI 1640 medium supplemented with 10% heat-inactivated fetal bovine serum (Sigma Chemical Co., St. Louis, Mo.), 10 mM Hepes, pH 7.2, 50 μM 2-ME, 2 mM L-glutamine, 100 U/ml penicillin and 100 μg/ml streptomycin (Gibco, Grand Island, N.Y.).
(§3) The effect of these compounds on both membrane and soluble forms of murine IL-5 receptor α were measured and are shown in Table 1B. Oligonucleotides were screened in BCL1 cells at a dose of 10 μM and IL-5 receptor α mRNA was measured by Northern blot. Percent inhibition is compared to untreated (no oligo) control.
(§4) Total BCL1 cellular RNA was isolated using the RNeasy™ kit (Qiagen, Santa Clara Calif.) . Northern blotting was performed using standard methods. The cDNA probes were generated from oligonucleotides matching the exon sequences of either exons 2, 8, 9 or 10. Signals were quantitated using a Molecular Dynamics PhosphorImager.

[4] = system: murine IL-5 receptor α mRNA, membrane form; assay: Membrane IL-5 receptor α mRNA by Northern blot in BCL1 cells; assay type: cell-based, mouse; settings: BCL1 cells, 10 μM, Northern blot, compared to untreated control; 2′-MOE gapmers
Description: as §2, §3, §4

Substance | % INHIB, human IL-5 receptorα protein on the cell surface [1] | % of CONTROL, human IL-5 receptorα protein on the cell surface [1] [%] | % INHIB'N, human IL-5 receptorα membrane form mRNA [2] | % of CONTROL, human IL-5 receptorα membrane form mRNA [2] [%] | other results
16746 (antisense eA*e[5mC]*e[5mC]*e[5mC]*eA*eG*e[5mC]*eT*eT*eT*e[5mC]*eT*eG*e[5mC]*eA*eA*eA*eA*e[5mC]*eA) [compound 16746] | 65% | 35 | 64% | 36 | 
16747 (antisense ACCCAGCTTTCTGCAAAACA; listed as DNA, chemistry not fully specified) [compound 16747] | 19.5% | 80.5 | 34% | 66 | 
16748 (antisense ACCCAGCTTTCTGCAAAACA; listed as DNA, chemistry not fully specified) [compound 16748] | 59.5% | 40.5 | 75% | 25 | 
16749 (antisense eT*e[5mC]*eA*eA*e[5mC]*eA*eT*eT*eA*e[5mC]*e[5mC]*eT*e[5mC]*eA*eT*eA*eG*eT*eT*eA) [compound 16749] | 25% | 75 |  | 101 | 
16750 (antisense dT*dC*dA*dA*dC*dA*dT*dT*dA*dC*e[5mC]*eT*e[5mC]*eA*eT*eA*eG*eT*eT*eA) [compound 16750] | 9% | 91 | 4% | 96 | 
16751 (antisense eT*e[5mC]*eA*eA*e[5mC]*dA*dT*dT*dA*dC*dC*dT*dC*dA*dT*eA*eG*eT*eT*eA) [compound 16751] |  | 101 | 4% | 96 | 
16752 (antisense eT*eA*eA*eA*eT*eG*eA*e[5mC]*eA*eT*e[5mC]*eT*eG*eA*eA*eA*eA*e[5mC]*eA*eG) [compound 16752] |  | 100.5 |  | 101 | 
16753 (antisense dT*dA*dA*dA*dT*dG*dA*dC*dA*dT*e[5mC]*eT*eG*eA*eA*eA*eA*e[5mC]*eA*eG) [compound 16753] | 4% | 96 | 2% | 98 | 
16754 (antisense eT*eA*eA*eA*eT*dG*dA*dC*dA*dT*dC*dT*dG*dA*dA*eA*eA*e[5mC]*eA*eG) [compound 16754] |  | 100.5 |  | 101 | 
16755 (antisense eG*eA*eA*e[5mC]*eA*e[5mC]*eT*eT*eA*e[5mC]*eA*eT*eT*eT*eT*eA*e[5mC]*eA*eG*eA) [compound 16755] | 89.5% | 10.5 | 84% | 15.5 | 
16756 (antisense dG*dA*dA*dC*dA*dC*dT*dT*dA*dC*eA*eT*eT*eT*eT*eA*e[5mC]*eA*eG*eA) [compound 16756] |  | 101 | 4% | 96 | 
16757 (antisense eG*eA*eA*e[5mC]*eA*dC*dT*dT*dA*dC*dA*dT*dT*dT*dT*eA*e[5mC]*eA*eG*eA) [compound 16757] | 19% | 81 | 9% | 91 | 
16759 (antisense dT*dC*dA*dT*dC*dA*dT*dT*dT*dC*e[5mC]*eT*eG*eG*eT*eG*eG*eA*eA*eA) [compound 16759] | 24.5% | 75.5 | 19% | 81 | 
16760 (antisense eT*e[5mC]*eA*eT*e[5mC]*dA*dT*dT*dT*dC*dC*dT*dG*dG*dT*eG*eG*eA*eA*eA) [compound 16760] | 29% | 71 | 24% | 76 | 
18001 (CAAGGACTTCCTTTCCTTTC; antisense; listed as DNA, chemistry not fully specified) [compound 18001] |  |  |  |  | % inhibition of soluble IL-5 Rα [3]: 39%; % inhibition of membrane IL-5 Rα [4]: 35%
18002 (GCCATTCTACCAAGGACTTC; listed as DNA, chemistry not fully specified) [compound 18002] |  |  |  |  | % inhibition of soluble IL-5 Rα [3]: 8%; % inhibition of membrane IL-5 Rα [4]: 5%
18003 (ACAATGAGATGCCATTCTAC; antisense; listed as DNA, chemistry not fully specified) [compound 18003] |  |  |  |  | % inhibition of soluble IL-5 Rα [3]: 20%; % inhibition of membrane IL-5 Rα [4]: 15%
ISIS 16746: ACCCAGCTTTCTGCAAAACA, SEQ ID 31; human IL-5R I13/E14; 2′-MOE pattern (bold) not visible (antisense eA*e[5mC]*e[5mC]*e[5mC]*eA*eG*e[5mC]*eT*eT*eT*e[5mC]*eT*eG*e[5mC]*eA*eA*eA*eA*e[5mC]*eA) | over 50% |  | over 50% |  | 
ISIS 16748: ACCCAGCTTTCTGCAAAACA, SEQ ID 31; human IL-5R I13/E14; 2′-MOE pattern not visible (antisense eA*e[5mC]*e[5mC]*e[5mC]*eA*dG*dC*dT*dT*dT*dC*dT*dG*dC*dA*eA*eA*eA*e[5mC]*eA) | over 50% |  | over 50% |  | 
ISIS 18002: GCCATTCTACCAAGGACTTC, SEQ ID 2; 2′-MOE gapmer, mouse IL-5R exon 9 (listed as DNA, chemistry not fully specified) |  |  |  |  | % inhibition of membrane IL-5 Rα [4]: inhibitor of both forms of IL-5 receptorα
ISIS 18009: TCATCATTTACTGGTGGAAA, SEQ ID 36; mismatch of 16758 (antisense eT*e[5mC]*eA*eT*e[5mC]*eA*eT*eT*eT*eA*e[5mC]*eT*eG*eG*eT*eG*eG*eA*eA*eA) [reference compound] |  |  |  |  | IC50 ([1]; TF-1 cells, read-out: IC50 for reduction of IL-5 receptorα cell surface protein): 10 µM
ISIS 18010: TCAGCATTTACTGGTGTAAA, SEQ ID 37; mismatch of 16758 (antisense eT*e[5mC]*eA*eG*e[5mC]*eA*eT*eT*eT*eA*e[5mC]*eT*eG*eG*eT*eG*eT*eA*eA*eA) [reference compound] |  |  |  |  | inhibition of IL-5 receptorα expression (mismatch controls) ([1]; TF-1 cells): did not inhibit
ISIS 18011: TCAGCAGTTACTTGTGTAAA, SEQ ID 38; 5-mismatch for 16758 (antisense eT*e[5mC]*eA*eG*e[5mC]*eA*eG*eT*eT*eA*e[5mC]*eT*eT*eG*eT*eG*eT*eA*eA*eA) [reference compound] |  |  |  |  | inhibition of IL-5 receptorα expression (mismatch controls) ([1]; TF-1 cells): did not inhibit
